ChEMBL document CHEMBL1201861, “Genomics of Drug Sensitity in Cancer screening data, Wellcome Trust Sanger Institute”
pIC50: −log10 of the molar value.

Legend:
Assay in all cases: cells
[1] = system: LB771-HNC; format: functional, cell-based, Homo sapiens; settings: Homo sapiens, LB771-HNC;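 note: growth inhibition of LB771-HNC human cells, read out with a cell viability assay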
Description: SANGER: Inhibition of human LB771-HNC cell growth in a cell viability assay.

[2] = system: VMRC-RCZ; format: functional, cell-based; settings: Homo sapiens;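 note: growth inhibition measured with a cell viability assay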
Description: SANGER: Inhibition of human VMRC-RCZ cell growth in a cell viability assay.

[3] = system: HH; format: functional, cell-based; settings: Homo sapiens
Description: SANGER: Inhibition of human HH cell growth in a cell viability assay.

[4] = system: KOSC-2; format: functional, cell-based, Homo sapiens; settings: Homo sapiens, KOSC-2;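 note: growth inhibition of KOSC-2 cells, read out by a cell viability assay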
Description: SANGER: Inhibition of human KOSC-2 cell growth in a cell viability assay.

[5] = system: LB373-MEL-D; format: functional, cell-based, Homo sapiens; settings: Homo sapiens, LB373-MEL-D;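 note: growth inhibition of the cell line, read out in a cell viability assay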
Description: SANGER: Inhibition of human LB373-MEL-D cell growth in a cell viability assay.

[6] = system: HC-1; format: functional, cell-based; settings: Homo sapiens;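 note: growth inhibition of HC-1 cells measured by a cell viability assay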
Description: SANGER: Inhibition of human HC-1 cell growth in a cell viability assay.

[7] = system: RH-1; format: functional, cell-based, Homo sapiens; settings: Homo sapiens, RH-1;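 note: growth inhibition of human RH-1 cells, read out with a cell viability assay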
Description: SANGER: Inhibition of human RH-1 cell growth in a cell viability assay.

[8] = system: SK-PN-DW; format: functional, cell-based; settings: Homo sapiens;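 note: growth inhibition measured with a viability assay on these cells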
Description: SANGER: Inhibition of human SK-PN-DW cell growth in a cell viability assay.

[9] = system: NB5; format: functional, cell-based, Homo sapiens; settings: Homo sapiens, NB5;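 note: growth inhibition of NB5 cells, read out as cell viability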
Description: SANGER: Inhibition of human NB5 cell growth in a cell viability assay.

[10] = system: LK-2; format: functional, cell-based, Homo sapiens; settings: Homo sapiens, LK-2;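 note: growth inhibition of LK-2 cells, read out with a viability assay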
Description: SANGER: Inhibition of human LK-2 cell growth in a cell viability assay.

[11] = system: Ramos-2G6-4C10; format: functional, cell-based; settings: Homo sapiens;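 note: growth inhibition of the cell line, measured by a cell viability read-out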
Description: SANGER: Inhibition of human Ramos-2G6-4C10 cell growth in a cell viability assay.

[12] = system: HCC1569; format: functional, cell-based, Homo sapiens; settings: Homo sapiens, HCC1569;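 note: growth inhibition of human HCC1569 cells, read out with a cell viability assay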
Description: SANGER: Inhibition of human HCC1569 cell growth in a cell viability assay.

[13] = system: HCC70; format: functional, cell-based, Homo sapiens; settings: Homo sapiens, HCC70;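 note: cell viability assay measuring how strongly the compound suppresses proliferation of HCC70 cells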
Description: SANGER: Inhibition of human HCC70 cell growth in a cell viability assay.

[14] = system: DMS-273; format: functional, cell-based, Homo sapiens; settings: Homo sapiens, DMS-273
Description: SANGER: Inhibition of human DMS-273 cell growth in a cell viability assay.

[15] = system: ES4; format: functional, cell-based, Homo sapiens; settings: Homo sapiens, ES4;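 note: growth inhibition of human ES4 cells, read out by a cell viability assay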
Description: SANGER: Inhibition of human ES4 cell growth in a cell viability assay.

[16] = system: SK-OV-3; format: functional, cell-based, Homo sapiens; settings: Homo sapiens, SK-OV-3;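 note: growth inhibition of SK-OV-3 human cells, read out with a cell viability assay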
Description: SANGER: Inhibition of human SK-OV-3 cell growth in a cell viability assay.

[17] = system: ACN; format: functional, cell-based, Homo sapiens; settings: Homo sapiens, ACN;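 note: growth inhibition of the human ACN cell line, read out via cell viability testing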
Description: SANGER: Inhibition of human ACN cell growth in a cell viability assay.

[18] = system: D283 Med; format: functional, cell-based, Homo sapiens; settings: Homo sapiens, D283 Med
Description: SANGER: Inhibition of human D-283MED cell growth in a cell viability assay.

[19] = system: BE-13; format: functional, cell-based; settings: Homo sapiens;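 note: growth inhibition of human BE-13 cells, measured with a cell viability assay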
Description: SANGER: Inhibition of human BE-13 cell growth in a cell viability assay.

[20] = system: ETK-1; format: functional, cell-based, Homo sapiens; settings: Homo sapiens, ETK-1;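 note: growth inhibition of human ETK-1 cells, read out with a cell viability assay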
Description: SANGER: Inhibition of human ETK-1 cell growth in a cell viability assay.

[21] = system: NUGC-3; format: functional, cell-based, Homo sapiens; settings: Homo sapiens, NUGC-3;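 note: growth inhibition of human NUGC-3 cells, read out with a cell viability assay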
Description: SANGER: Inhibition of human NUGC-3 cell growth in a cell viability assay.

[22] = system: TYK-nu; format: functional, cell-based, Homo sapiens; settings: Homo sapiens, TYK-nu;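 note: growth inhibition of human TYK-nu cells, read out by a cell viability assay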
Description: SANGER: Inhibition of human TYK-nu cell growth in a cell viability assay.

[23] = system: A2780; format: functional, cell-based, Homo sapiens; settings: Homo sapiens, A2780;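 note: growth inhibition of A2780 cells, read out with a cell viability assay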
Description: SANGER: Inhibition of human A2780 cell growth in a cell viability assay.

[24] = system: NCI-H1563; format: functional, cell-based, Homo sapiens; settings: Homo sapiens, NCI-H1563;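 note: growth inhibition of human NCI-H1563 cells, read out with a cell viability assay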
Description: SANGER: Inhibition of human NCI-H1563 cell growth in a cell viability assay.

[25] = system: SAS; format: functional, cell-based, Homo sapiens; settings: Homo sapiens, SAS;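 note: growth inhibition of SAS cells, read out with a cell viability assay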
Description: SANGER: Inhibition of human SAS cell growth in a cell viability assay.

[26] = system: GOTO; format: functional, cell-based, Homo sapiens; settings: Homo sapiens, GOTO;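 note: growth inhibition of GOTO cells, read out by a cell viability assay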
Description: SANGER: Inhibition of human GOTO cell growth in a cell viability assay.

[27] = system: CAMA-1; format: functional, cell-based, Homo sapiens; settings: Homo sapiens, CAMA-1;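 note: growth inhibition of CAMA-1 cells, read out with a cell viability assay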
Description: SANGER: Inhibition of human CAMA-1 cell growth in a cell viability assay.

[28] = system: U2OS; format: functional, cell-based, Homo sapiens, U-2-OS; settings: Homo sapiens, U2OS;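 note: growth inhibition of human U-2-OS cells, determined with a cell viability assay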
Description: SANGER: Inhibition of human U-2-OS cell growth in a cell viability assay.

[29] = system: TGBC24TKB; format: functional, cell-based, Homo sapiens; settings: Homo sapiens, TGBC24TKB;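 note: growth inhibition of human TGBC24TKB cells, read out with a cell viability assay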
Description: SANGER: Inhibition of human TGBC24TKB cell growth in a cell viability assay.

[30] = system: EFO-27; format: functional, cell-based, Homo sapiens; settings: Homo sapiens, EFO-27;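 note: growth inhibition of EFO-27 cells, read out with a cell viability assay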
Description: SANGER: Inhibition of human EFO-27 cell growth in a cell viability assay.

[31] = system: HCC2157; format: functional, cell-based; settings: Homo sapiens;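 note: growth inhibition of the cancer cell line, read out as cell viability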
Description: SANGER: Inhibition of human HCC2157 cell growth in a cell viability assay.

[32] = system: Capan-2; format: functional, cell-based, Homo sapiens; settings: Homo sapiens, Capan-2;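 note: Capan-2 cell growth inhibition, read out with a viability assay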
Description: SANGER: Inhibition of human Capan-2 cell growth in a cell viability assay.

[33] = system: MV4-11; format: functional, cell-based, MV-4-11; settings: Homo sapiens;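 note: cell viability readout measuring growth inhibition of human MV-4-11 cells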
Description: SANGER: Inhibition of human MV-4-11 cell growth in a cell viability assay.

[34] = system: MKN-45; format: functional, cell-based, Homo sapiens; settings: Homo sapiens, MKN-45;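 note: growth inhibition of human MKN-45 cells, measured with a cell viability assay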
Description: SANGER: Inhibition of human MKN45 cell growth in a cell viability assay.

[35] = system: SCC-4; format: functional, cell-based, Homo sapiens; settings: Homo sapiens, SCC-4;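 note: growth inhibition of human SCC-4 cells, read out as cell viability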
Description: SANGER: Inhibition of human SCC-4 cell growth in a cell viability assay.

[36] = system: BHT-101; format: functional, cell-based, Homo sapiens; settings: Homo sapiens, BHT-101
Description: SANGER: Inhibition of human BHT-101 cell growth in a cell viability assay.

[37] = system: TE-6; format: functional, cell-based, Homo sapiens; settings: Homo sapiens, TE-6;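 note: growth inhibition of TE-6 cells, read out with a cell viability assay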
Description: SANGER: Inhibition of human TE-6 cell growth in a cell viability assay.

[38] = system: A3-KAW; format: functional, cell-based; settings: Homo sapiens;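 note: growth inhibition of human A3-KAW cells, read out with a cell viability assay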
Description: SANGER: Inhibition of human A3-KAW cell growth in a cell viability assay.

[39] = system: NCI-H2126; format: functional, cell-based, Homo sapiens; settings: Homo sapiens, NCI-H2126;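 note: growth inhibition of the cancer cell line, determined with a cell viability readout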
Description: SANGER: Inhibition of human NCI-H2126 cell growth in a cell viability assay.

[40] = system: NB12; format: functional, cell-based, Homo sapiens; settings: Homo sapiens, NB12;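 note: growth inhibition of human NB12 cells, read out by a cell viability assay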
Description: SANGER: Inhibition of human NB12 cell growth in a cell viability assay.

[41] = system: Ca-Ski; format: functional, cell-based; settings: Homo sapiens;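 note: cell viability assay measuring inhibition of Ca-Ski cell growth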
Description: SANGER: Inhibition of human Ca-Ski cell growth in a cell viability assay.

[42] = system: DBTRG-05MG; format: functional, cell-based, Homo sapiens; settings: Homo sapiens, DBTRG-05MG;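 note: cell viability assay measuring growth inhibition of human DBTRG-05MG cells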
Description: SANGER: Inhibition of human DBTRG-05MG cell growth in a cell viability assay.

[43] = system: KYSE-450; format: functional, cell-based; settings: Homo sapiens;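 note: cell growth inhibition measured by a viability assay in human KYSE-450 cells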
Description: SANGER: Inhibition of human KYSE-450 cell growth in a cell viability assay.

[44] = system: ES5; format: functional, cell-based, Homo sapiens; settings: Homo sapiens, ES5;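 note: growth inhibition of human ES5 cells, read out by a cell viability assay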
Description: SANGER: Inhibition of human ES5 cell growth in a cell viability assay.

[45] = system: TE-11; format: functional, cell-based, Homo sapiens; settings: Homo sapiens, TE-11;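 note: growth inhibition of human TE-11 cells, read out by a cell viability assay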
Description: SANGER: Inhibition of human TE-11 cell growth in a cell viability assay.

[46] = system: WM-115; format: functional, cell-based, Homo sapiens; settings: Homo sapiens, WM-115
Description: SANGER: Inhibition of human WM-115 cell growth in a cell viability assay.

[47] = system: NH-12; format: functional, cell-based, Homo sapiens; settings: Homo sapiens, NH-12;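 note: growth inhibition of NH-12 cells, read out with a cell viability assay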
Description: SANGER: Inhibition of human NH-12 cell growth in a cell viability assay.

[48] = system: DoTc2-4510; format: functional, cell-based, Homo sapiens; settings: Homo sapiens, DoTc2-4510
[49] = system: PANC-08-13; format: functional, cell-based, Homo sapiens; settings: Homo sapiens, PANC-08-13;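 note: cell growth inhibition, measured with a cell viability assay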
Description: SANGER: Inhibition of human PANC-08-13 cell growth in a cell viability assay.

[50] = system: NCI-H520; format: functional, cell-based, Homo sapiens; settings: Homo sapiens, NCI-H520;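 note: growth inhibition of NCI-H520 cells, measured by a cell viability assay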
Description: SANGER: Inhibition of human NCI-H520 cell growth in a cell viability assay.

[51] = system: COLO-829; format: functional, cell-based, Homo sapiens; settings: Homo sapiens, COLO-829
Description: SANGER: Inhibition of human COLO-829 cell growth in a cell viability assay.

[52] = system: NB14; format: functional, cell-based; settings: Homo sapiens;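 note: growth inhibition of NB14 cells measured with a cell viability assay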
Description: SANGER: Inhibition of human NB14 cell growth in a cell viability assay.

## C[C@]1(O)C[C@@H](c2nc(-c3ccc4ccc(-c5ccccc5)nc4c3)c3c(N)nccn32)C1 [LINSITINIB]
[1]
  pIC50: 6.59
[2]
  pIC50: < 5.59
[3]
  pIC50: < 5.59
[4]
  pIC50: < 5.59
[5]
  pIC50: < 5.59
[6]
  pIC50: < 5.59
[7]
  pIC50: 6.13
[8]
  pIC50: 5.72
[9]
  pIC50: < 5.59
[10]
  pIC50: < 5.59
[11]
  pIC50: < 5.59
[12]
  pIC50: < 5.59
[13]
  pIC50: < 5.59
[14]
  pIC50: < 5.59
[15]
  pIC50: 6.39
[16]
  pIC50: < 5.59
[17]
  pIC50: < 5.59
[18]
  pIC50: < 5.59
[19]
  pIC50: < 5.59
[20]
  pIC50: < 5.59
[21]
  pIC50: < 5.59
[22]
  pIC50: < 5.59
[23]
  pIC50: < 5.59
[24]
  pIC50: < 5.59
[25]
  pIC50: < 5.59
[26]
  pIC50: < 5.59
[27]
  pIC50: < 5.59
[28]
  pIC50: < 5.59
[29]
  pIC50: 5.82
[30]
  pIC50: < 5.59
[31]
  pIC50: < 5.59
[32]
  pIC50: < 5.59
[33]
  pIC50: < 5.59
[34]
  pIC50: < 5.59
[35]
  pIC50: < 5.59
[36]
  pIC50: < 5.59
[37]
  pIC50: < 5.59
[38]
  pIC50: < 5.59
[39]
  pIC50: < 5.59
[40]
  pIC50: < 5.59
[41]
  pIC50: < 5.59
[42]
  pIC50: < 5.59
[43]
  pIC50: < 5.59
[44]
  pIC50: < 5.59
[45]
  pIC50: 7.11
[46]
  pIC50: < 5.59
[47]
  pIC50: 6.12
[48]
  pIC50: < 5.59
[49]
  pIC50: 6.06
[50]
  pIC50: < 5.59
[51]
  pIC50: < 5.59

## COC(=O)CNC(=O)C(=O)OC
[1]
  pIC50: 3.38
[2]
  pIC50: 2.71
[3]
  pIC50: 4.47
[4]
  pIC50: < 2.40
[5]
  pIC50: 3.15
[6]
  pIC50: 3.24
[7]
  pIC50: 2.86
[8]
  pIC50: 3.67
[9]
  pIC50: < 2.40
[10]
  pIC50: < 2.40
[11]
  pIC50: 4.00
[12]
  pIC50: 2.77
[13]
  pIC50: 3.51
[14]
  pIC50: 4.80
[15]
  pIC50: 2.94
[16]
  pIC50: 3.10
[17]
  pIC50: 3.89
[18]
  pIC50: 3.28
[19]
  pIC50: 3.74
[20]
  pIC50: 3.28
[21]
  pIC50: 2.83
[23]
  pIC50: 2.69
[24]
  pIC50: 3.91
[25]
  pIC50: 3.63
[26]
  pIC50: 2.94
[27]
  pIC50: < 2.40
[29]
  pIC50: < 2.40
[30]
  pIC50: 3.27
[31]
  pIC50: < 2.40
[32]
  pIC50: 3.47
[33]
  pIC50: 3.56
[34]
  pIC50: < 2.40
[35]
  pIC50: 3.06
[36]
  pIC50: < 2.40
[37]
  pIC50: 2.87
[38]
  pIC50: 4.80
[39]
  pIC50: 2.74
[40]
  pIC50: 4.07
[41]
  pIC50: 3.80
[42]
  pIC50: 3.51
[43]
  pIC50: 2.61
[44]
  pIC50: < 2.40
[45]
  pIC50: 3.38
[46]
  pIC50: 3.66
[47]
  pIC50: < 2.40
[48]
  pIC50: 3.81
[49]
  pIC50: 2.84
[50]
  pIC50: 3.40
[51]
  pIC50: 3.95

## COc1ccc(-c2ccc3c(N4CCOC[C@@H]4C)nc(N4CCOC[C@@H]4C)nc3n2)cc1CO [AZD-8055]
[1]
  pIC50: < 5.70
[2]
  pIC50: 6.11
[3]
  pIC50: 7.10
[4]
  pIC50: 5.97
[7]
  pIC50: 5.80
[8]
  pIC50: 5.76
[9]
  pIC50: 6.15
[10]
  pIC50: 6.57
[11]
  pIC50: 6.77
[12]
  pIC50: 6.07
[13]
  pIC50: < 5.70
[14]
  pIC50: 6.11
[15]
  pIC50: 6.34
[16]
  pIC50: 6.17
[17]
  pIC50: 6.03
[18]
  pIC50: 6.83
[19]
  pIC50: 5.95
[20]
  pIC50: 6.05
[21]
  pIC50: 6.15
[22]
  pIC50: 6.50
[23]
  pIC50: 5.76
[24]
  pIC50: 6.10
[25]
  pIC50: < 5.70
[26]
  pIC50: 5.76
[27]
  pIC50: 6.21
[28]
  pIC50: 6.12
[29]
  pIC50: 5.73
[30]
  pIC50: 6.17
[31]
  pIC50: < 5.70
[32]
  pIC50: < 5.70
[33]
  pIC50: 6.99
[35]
  pIC50: 6.23
[36]
  pIC50: 6.39
[37]
  pIC50: 5.77
[38]
  pIC50: 6.53
[39]
  pIC50: 5.78
[40]
  pIC50: < 5.70
[41]
  pIC50: < 5.70
[42]
  pIC50: < 5.70
[43]
  pIC50: 6.08
[44]
  pIC50: 7.03
[45]
  pIC50: < 5.70
[46]
  pIC50: 6.16
[47]
  pIC50: 5.95
[48]
  pIC50: < 5.70
[49]
  pIC50: 6.24
[50]
  pIC50: 6.46
[51]
  pIC50: < 5.70
[52]
  pIC50: 6.78
